Consider 16 compounds from patent publication US6982286B2, “Carbocyclic hydrazino inhibitors of copper-containing amine oxidases” (Biotie Therapies Corp., priority 2001, dated 2006).

Data set [1] concerns the target T1, Recombinant human VAP-1 SSAO (Homo sapiens, UniProt Q16853).
T1 construct: expressed in transfected cells; host or cells: Chinese Hamster Ovary (CHO) cells; NP40 lysate supernatant used directly
T1 sequence (Q16853 1-763): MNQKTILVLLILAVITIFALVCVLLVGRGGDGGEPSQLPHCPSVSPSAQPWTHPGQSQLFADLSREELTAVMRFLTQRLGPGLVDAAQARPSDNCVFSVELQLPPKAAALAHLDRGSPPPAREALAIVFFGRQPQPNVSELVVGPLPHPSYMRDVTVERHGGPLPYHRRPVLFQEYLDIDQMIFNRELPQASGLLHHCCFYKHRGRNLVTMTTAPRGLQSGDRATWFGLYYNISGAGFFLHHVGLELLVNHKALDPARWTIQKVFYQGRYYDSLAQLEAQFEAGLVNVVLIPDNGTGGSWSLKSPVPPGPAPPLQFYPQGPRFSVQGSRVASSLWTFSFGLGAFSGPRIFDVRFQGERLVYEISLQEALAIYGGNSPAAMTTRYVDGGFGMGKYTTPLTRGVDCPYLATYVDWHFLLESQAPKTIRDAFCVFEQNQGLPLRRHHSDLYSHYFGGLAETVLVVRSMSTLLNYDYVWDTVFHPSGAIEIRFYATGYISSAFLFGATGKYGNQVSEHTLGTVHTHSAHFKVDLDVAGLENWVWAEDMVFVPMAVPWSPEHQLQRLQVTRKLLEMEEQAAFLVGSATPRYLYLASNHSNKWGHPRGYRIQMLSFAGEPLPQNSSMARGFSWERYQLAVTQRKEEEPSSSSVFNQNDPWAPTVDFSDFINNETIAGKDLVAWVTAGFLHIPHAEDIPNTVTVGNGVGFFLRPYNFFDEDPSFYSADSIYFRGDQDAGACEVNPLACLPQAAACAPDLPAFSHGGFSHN
The data set can be described thus: In vitro inhibition of VAP-1 SSAO activity (coupled colourimetric method). Type of data set: biochemical. As to conditions: for Selectivity for VAP-1 SSAO over MAO: ratio of total rat MAO IC50 to human VAP-1 SSAO IC50; for IC50: recombinant human VAP-1 SSAO in CHO cell lysate, 1 mM benzylamine, pH 7.6, 37° C., read-out: VAP-1 SSAO inhibitory activity IC50. How it is done: VAP-1 SSAO activity was measured using the coupled colourimetric method essentially as described for monoamine oxidase and related enzymes (Holt, A., et al., Anal. Biochem. 244:384-392 (1997)). Recombinant human VAP-1 SSAO expressed in Chinese Hamster Ovary (CHO) cells was used as a source of VAP-1 SSAO for activity measurements. Native CHO cells have negligible SSAO activity. These cells and their culture have previously been described (Smith, D. J., et al., J. Exp. Med. 188:17-27 (1998)). A cell lysate was prepared by suspending approximately 3.6×10^8 cells in 25 ml lysis buffer (150 mM NaCl, 10 mM Tris-Base pH 7.2, 1.5 mM MgCl2, 1% NP40) and incubating at 4° C. overnight on a rotating table. The lysate was clarified by centrifugation at 18000 g for 5 min at room temperature and the supernatant used directly in the assay. The VAP1 SSAO assay was performed in 96 well microtitre plates as follows. To each well was added a predetermined amount of inhibitor if required. The amount of inhibitor varied in each assay but was generally at a final concentration of between 1 nM and 50 μM. Controls lacked inhibitor. The inhibitor was in total volume of […] in water. The following reagents were then added. 0.2M potassium phosphate buffer pH 7.6 to a total reaction volume of 200 μl, 45 μl of freshly made chromogenic solution containing 1 mM 2,4-dichlorophenol, 500 μM 4-aminoantipyrine and 4 U/ml horseradish peroxidase and an amount of CHO cell lysate containing VAP-1 SSAO that caused a change of 0.6 A490 per h. This was within the linear response range of the assay. The plates were incubated for 30 min at 37° C. and the background absorbance measured at 490 nm using a Wallac Victor II multilabel counter. To initiate the enzyme reaction 20 μl 10 mM benzylamine (final concentration=1 mM) was added and the plate incubated for 1 h at 37° C. The increase in absorbance, reflecting VAP-1 SSAO activity, was measured at490 nm. Inhibition was presented as percent inhibition compared to control after correcting for background absorbance and IC50 values calculated using GraphPad Prism.

The structures appear in SMILES notation. Counter-ions that a name gives are not always drawn.

`CN(N)[C@@H]1Cc2ccccc2[C@H]1O` [Compound 8, (1R,2R)-2-(1-methylhydrazino)-1-indanol fumarate]: the “Selectivity for VAP-1 SSAO over MAO” value in data set [1] (fumarate) came to 21. For the same compound, in data set [1], the IC50 worked out at 560 nM.
On to `CN(N)[C@@H]1Cc2ccccc2[C@H]1O` [Compound 12, (1R,2R)-2-(1-methylhydrazino)-1-indanol (S,S)-tartrate], for which, in data set [1], the “Selectivity for VAP-1 SSAO over MAO” value worked out at 30 and the IC50 was 660 nM.
Taken in the same sequence, the figures for `CN(N)[C@@H]1Cc2ccccc2[C@H]1O` [Compound 6, (1R,2R)-2-(1-methylhydrazino)-1-indanol hydrogenmaleate] were 29 and 650 nM.
For `CN(N)[C@H]1Cc2ccccc2[C@@H]1O` [Compound 1, (1S,2S)-2-(1-methylhydrazino)-1-indanol hydrogenmaleate], in that order: 31 and 700 nM.
With `CN(N)[C@@H]1Cc2ccccc2[C@H]1O` (as salt: maleate) [Compound 6, (1R,2R)-2-(1-methylhydrazino)-1-indanol hydrogenmaleate], the melting point lay in the range of 104 to 106 °C.
For the compound `CN(N)[C@@H]1Cc2ccccc2[C@H]1O` [Compound 10, (1R,2R)-2-(1-methylhydrazino)-1-indanol succinate], in data set [1] (succinate), the “Selectivity for VAP-1 SSAO over MAO” value came out at 23. The half-maximal inhibitory concentration (IC50) in data set [1] worked out at 660 nM.
As for `CN(N)[C@@H]1Cc2ccccc2[C@H]1O` [Compound 14, (1R,2R)-2-(1-methylhydrazino)-1-indanol (R,R)-tartrate], in data set [1], the “Selectivity for VAP-1 SSAO over MAO” value amounted to 28 and the IC50 came out at 710 nM.
Taken in the same sequence, the figures for `CN(N)[C@@H]1Cc2ccccc2[C@H]1O` (relative stereo) [Compound 4, (1R,*2R*)-2-(1-Methylhydrazino)-1-indanol hydrogenmaleate] were 32 and 660 nM.
On to `CN(N)[C@H]1Cc2ccccc2[C@@H]1O` [Compound 9, (1S,2S)-2-(1-methylhydrazino)-1-indanol succinate], for which the “Selectivity for VAP-1 SSAO over MAO” value in data set [1] (succinate) came to 26. For the same compound, the IC50 in data set [1] amounted to 620 nM.
For the compound `CN(N)[C@H]1Cc2ccccc2[C@@H]1O` [Compound 11, (1S,2S)-2-(1-methylhydrazino)-1-indanol (S,S)-tartrate], in data set [1], the “Selectivity for VAP-1 SSAO over MAO” value was determined as 31 and the IC50 was determined as 710 nM.
As to `CN(N)[C@H]1Cc2ccccc2[C@@H]1O` (as salt: maleate) [Compound 1, (1S,2S)-2-(1-methylhydrazino)-1-indanol hydrogenmaleate], the melting point lay in the range of 104 to 106 °C.
Consider `CN(N)[C@H]1Cc2ccccc2[C@@H]1O` [Compound 13, (1S,2S)2-(1-methylhydrazino)-1-indanol (R,R)-tartrate], for which, in data set [1], the “Selectivity for VAP-1 SSAO over MAO” value is reported as 29 and the IC50 was 660 nM.
For `CO[C@H]1c2ccccc2C[C@@H]1N(C)N` [Compound 19, (1S,2S)-2-(1-methylhydrazino)-1-methoxyindane Hydrogenmaleate], in that order: 3 and 4320 nM.
Turning to `CN(N)[C@H]1Cc2ccccc2[C@@H]1O` [Compound 7, (1S,2S)-2-(1-methylhydrazino)-1-indanol fumarate], the “Selectivity for VAP-1 SSAO over MAO” value in data set [1] (fumarate) is reported as 28. The IC50 in data set [1] was 470 nM.
Turning to `CCN(N)[C@@H]1Cc2ccccc2[C@H]1O` (racemic) [Compound 2, (1R*,2R*)-2-(1-Ethylhydrazino)-1-indanol hydrogenmaleate], in data set [1], the “Selectivity for VAP-1 SSAO over MAO” value amounted to 4 and the IC50 turned out to be 5300 nM.
On to `CO[C@H]1c2ccccc2C[C@@H]1N(C)N` (as salt: maleate) [Compound 19, (1S,2S)-2-(1-methylhydrazino)-1-methoxyindane Hydrogenmaleate], for which the melting point is 113 to 115 °C.

For orientation: IC50 means the concentration that inhibits the measured activity by half. The melting point is the temperature of the solid-liquid transition.
